The supplement of paper PMC10307832

Tests used:
Experiment in all cases: relative viability (nuclei count vs DMSO), 5 days (fraction); higher = more cells survive
[1] = compound: CCn1c(-c2nonc2N)nc2cnc(Oc3cccc(NC(=O)c4ccc(OCCN5CCOCC5)cc4)c3)cc21 + CCNC(=O)c1noc(-c2cc(C(C)C)c(O)cc2O)c1-c1ccc(CN2CCOCC2)cc1 [Luminespib] (partner 0.01 µM)
Procedure, shortened: (§1)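 Five library-drug doses in √10 steps were combined with a fixed anchor-drug dose, or a single drug was given alone, by pin tool to lung cancer cell lines in 1536-well plates the day after seeding. Nuclei were stained and counted after 5 days. Relative viability is the nuclei count in treated wells over that in vehicle wells, taken as the median of duplicate plates.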

[2] = compound: N=C1NC(=O)/C(=C/c2ccc(O)cc2)S1 [Mirin] + CCNC(=O)c1noc(-c2cc(C(C)C)c(O)cc2O)c1-c1ccc(CN2CCOCC2)cc1 [Luminespib] (partner 0.01 µM)
Procedure, shortened: as §1

[3] = compound: N=C1NC(=O)/C(=C/c2ccc(O)cc2)S1 [Mirin] + N=C(N)NC(=N)NCCc1ccccc1 [Phenformin] (partner 250 µM)
Procedure, shortened: as §1

[4] = compound: N=C1NC(=O)/C(=C/c2ccc(O)cc2)S1 [Mirin] + C[C@@H](Oc1cc(-c2cnn(C3CCNCC3)c2)cnc1N)c1c(Cl)ccc(F)c1Cl [Crizotinib] (partner 1 µM)
Procedure, shortened: as §1

Cell Line	relative viability ([1]; first compound 0.04 µM)	relative viability ([1]; first compound 0.1265 µM)	relative viability ([1]; first compound 0.4 µM)	relative viability ([1]; first compound 1.265 µM)	relative viability ([1]; first compound 4 µM)	relative viability ([2]; first compound 0.25 µM)	relative viability ([2]; first compound 0.7906 µM)	relative viability ([2]; first compound 2.5 µM)	relative viability ([2]; first compound 7.906 µM)	relative viability ([2]; first compound 25 µM)	relative viability ([3]; first compound 0.25 µM)	relative viability ([3]; first compound 0.7906 µM)	relative viability ([3]; first compound 2.5 µM)	relative viability ([3]; first compound 7.906 µM)	relative viability ([3]; first compound 25 µM)	relative viability ([4]; first compound 0.25 µM)	relative viability ([4]; first compound 0.7906 µM)	relative viability ([4]; first compound 2.5 µM)	relative viability ([4]; first compound 7.906 µM)	relative viability ([4]; first compound 25 µM)
NCI-H727	0.418	0.264	0.352	0.379	0.413	0.515	0.307	0.453	0.265	0.316	0.828	0.922	0.444	0.657	0.577	1.1	0.98	0.799	1.04	0.659
NCI-H2009	1	0.804	0.822	0.599	0.394	0.983	1.15	1.02	0.925	1.07	0.485	0.573	0.522	0.411	0.526	1.08	1.11	1.01	0.853	1.16
HCC-44	0.772	0.974	0.478	0.17	0.126	0.968	1.19	0.805	0.939	1.05	0.165	0.102	0.126	0.213	0.314	0.817	0.85	0.783	0.795	1.07
ChaGo-K-1	0.586	0.691	0.706	0.48	0.454	0.555	0.295	0.705	0.429	0.306	0.485	0.428	0.49	0.423	0.324	0.984	–	1.12	1.04	0.866
COR-L23	0.62	0.463	0.447	0.15	0.106	0.763	0.726	0.609	0.626	0.499	0.465	0.46	0.45	0.469	0.481	0.69	0.828	0.75	0.556	0.617
EMC-BAC-2	1.13	1.16	1.1	0.863	0.662	1.08	1.13	1.13	1.17	1.1	0.57	0.57	0.559	0.401	0.49	0.727	0.818	0.774	0.697	0.616
LCLC-103H	1.08	1.02	1.1	0.721	0.779	0.931	1.06	0.93	1.05	1	0.342	0.345	0.324	0.387	0.358	1.1	0.978	1.01	1.17	1.25
LK-2	0.216	0.147	0.169	0.202	0.244	0.148	–	0.19	0.153	0.133	0.408	–	0.363	0.203	0.167	0.241	–	0.238	0.24	0.199
